# Assays:
# [1] = tested on: corn; test: Test B pre-/postemergence herbicide test; assay type: in vivo, Zea mays; settings: for Corn plant response rating: postemergence
# Summary of the method: (§1)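 Test chemicals in a non-phytotoxic solvent mixture with surfactant were applied preemergence to seeded species and postemergence to plants 2-18 cm tall (1- to 4-leaf stage); rice and barnyardgrass were also tested in a flooded paddy at the 2-leaf stage. Visual rating versus controls after 13-15 days in greenhouse, scale 0 (no effect) to 100 (complete control).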
# [2] = tested on: lambsquarters; test: Test B pre-/postemergence herbicide test; assay type: in vivo, Chenopodium album; settings: for Lambsquarters plant response rating: postemergence
# Summary of the method: as §1
# [3] = tested on: morningglory; test: Test A pre-/postemergence herbicide test; assay type: in vivo, Ipomoea spp.
# Summary of the method: (§2)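 Sandy loam soil given preemergence directed spray; plants at 2 to 10 cm, one- to two-leaf stage, sprayed to runoff postemergence, compounds in non-phytotoxic solvent with surfactant. Injury rated visually versus untreated controls after about ten greenhouse days, 0 (no effect) to 100 (complete control); dash means not tested.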
# [4] = tested on: barnyardgrass; test: Test A pre-/postemergence herbicide test; assay type: in vivo, Echinochloa crus-galli
# Summary of the method: as §2
# [5] = tested on: Surinam grass; test: Test B pre-/postemergence herbicide test; assay type: in vivo, Urochloa decumbens; settings: for Surinam Grass plant response rating: postemergence
# Summary of the method: as §1
# [6] = tested on: velvetleaf; test: Test A pre-/postemergence herbicide test; assay type: in vivo, Abutilon theophrasti
# Summary of the method: as §2
# [7] = tested on: rice; test: Test B pre-/postemergence herbicide test; assay type: in vivo, Oryza sativa; settings: preemergence
# Summary of the method: as §1
# [8] = tested on: giant foxtail; test: Test B pre-/postemergence herbicide test; assay type: in vivo, Setaria faberi; settings: for Foxtail, Giant plant response rating: postemergence
# Summary of the method: as §1
# [9] = tested on: velvetleaf; test: Test B pre-/postemergence herbicide test; assay type: in vivo, Abutilon theophrasti; settings: for Velvetleaf plant response rating: postemergence
# Summary of the method: as §1
# [10] = tested on: large crabgrass; test: Test A pre-/postemergence herbicide test; assay type: in vivo, Digitaria sanguinalis
# Summary of the method: as §2
# [11] = tested on: blackgrass; test: Test B postemergence herbicide test; assay type: in vivo, Alopecurus myosuroides; settings: postemergence
# Summary of the method: (§3)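 Each value is a visual 0–100 response rating taken against controls 13 to 15 days after treatment in the greenhouse. Plants received formulated chemical postemergence at the 1- to 4-leaf stage or, in flooded paddy, at the 2-leaf stage.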
# [12] = tested on: wild oat; test: Test B postemergence herbicide test; assay type: in vivo, Avena fatua; settings: postemergence
# Summary of the method: (§4)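 Scale 0–100: zero equals no visible effect, 100 complete control, judged by eye relative to controls. Timing: 13 to 15 days in greenhouse post-treatment. Growth stage at spraying: two leaves (paddy) or one to four leaves, 2–18 cm (postemergence).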
# [13] = tested on: ducksalad; test: Test B flooded paddy test; assay type: in vivo, Heteranthera limosa; settings: 1000 g ai/ha, scale 0 to 100 (0 no effect, 100 complete control)
# Summary of the method: as §3
# [14] = tested on: morningglory; test: Test B pre-/postemergence herbicide test; assay type: in vivo, Ipomoea coccinea; settings: for Morningglory plant response rating: postemergence
# Summary of the method: (§5)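 Evaluation is visual, comparing treated with control plants on a scale where 0 means no effect and 100 means full control. Treatments were preemergence, or postemergence on seedlings 2–18 cm tall, and held 13–15 days in the greenhouse.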
# [15] = tested on: barnyardgrass; test: Test B pre-/postemergence herbicide test; assay type: in vivo, Echinochloa crus-galli; settings: for Barnyardgrass plant response rating: postemergence
# Summary of the method: as §5
# [16] = tested on: giant foxtail; test: Test A pre-/postemergence herbicide test; assay type: in vivo, Setaria faberi
# Summary of the method: as §2
# [17] = tested on: large crabgrass; test: Test B pre-/postemergence herbicide test; assay type: in vivo, Digitaria sanguinalis; settings: for Crabgrass, Large plant response rating: postemergence
# Summary of the method: as §1
# [18] = tested on: pigweed; test: Test B pre-/postemergence herbicide test; assay type: in vivo, Amaranthus retroflexus; settings: for Pigweed plant response rating: postemergence
# Summary of the method: as §1
# [19] = tested on: small flower umbrella sedge; test: Test B flooded paddy test; assay type: in vivo, Cyperus difformis; settings: 1000 g ai/ha, scale 0 to 100 (0 no effect, 100 complete control)
# Summary of the method: as §3
# [20] = tested on: rice; test: Test B flooded paddy test; assay type: in vivo, Oryza sativa; settings: 1000 g ai/ha, scale 0 to 100 (0 no effect, 100 complete control)
# Summary of the method: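 Paddy species grown to the 2-leaf stage under flooding; blackgrass sprayed postemergence at 2–18 cm (1- to 4-leaf stage). Plants kept in a greenhouse for 13 to 15 days, then visually rated against controls on 0 (no effect) to 100 (complete control).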
# [21] = tested on: cocklebur; test: Test B pre-/postemergence herbicide test; assay type: in vivo, Xanthium strumarium; settings: for Cocklebur plant response rating: postemergence
# Summary of the method: as §5
# [22] = tested on: wheat; test: Test B postemergence herbicide test; assay type: in vivo, Triticum aestivum; design: key to Wheat plant response rating: 0 = no effect, 100 = complete control; settings: postemergence
# Summary of the method: as §4
# [23] = tested on: redroot pigweed; test: Test A pre-/postemergence herbicide test; assay type: in vivo, Amaranthus retroflexus
# Summary of the method: as §2
# [24] = tested on: barnyardgrass; test: Test B flooded paddy test; assay type: in vivo, Echinochloa crus-galli; settings: 1000 g ai/ha, scale 0 to 100 (0 no effect, 100 complete control)
# Summary of the method: as §3
# [25] = 125 g ai/ha, 0 is no effect, 100 is complete control, preemergence
# [26] = 125 g ai/ha, visual rating, scale 0 (no effect) to 100 (complete control)
# [27] = 500 g ai/ha, visual rating, 0 = no effect, 100 = complete control, preemergence
# [28] = 500 g ai/ha, scale 0 to 100, 0 is no effect, 100 is complete control
# [29] = Postemergence, 500 g ai/ha, 0 to 100 scale, 0 no effect, 100 complete control
# [30] = Postemergence, 2000 g ai/ha, 0 to 100 scale, 0 no effect, 100 complete control
# [31] = Preemergence, 2000 g ai/ha, visual rating, 0 to 100 scale (0 no effect, 100 complete control)
# [32] = preemergence, 500 g ai/ha, visual injury, 0 to 100 scale (0 no effect, 100 complete control)
structure (smiles),measurement,setting,value
Cn1nc(C(C)(C)C)cc1C(=O)Nc1cccc(C(=O)NC2CC2)n1 [Compound 315],"Plant response rating (0 to 100 scale), Corn",[1]; [25],0
same,Corn plant response rating,[1]; [26],10
same,"Plant response rating, Corn",[1]; [27],0
same,Corn plant response rating,[1]; [28],20
same,"Plant response rating (0 to 100 scale), Lambsquarters",[2]; [25],0
same,Lambsquarters plant response rating,[2]; [26],50
same,"Plant response rating, Lambsquarters",[2]; [27],80
same,Lambsquarters plant response rating,[2]; [28],60
same,Morningglory plant response rating,[3]; [29],0
same,"Plant response rating, Morningglory",[3]; [30],0
same,Morningglory plant response rating,[3]; [31],10
same,Morningglory plant response rating,[3]; [32],5
same,Barnyardgrass plant response rating,[4]; [29],20
same,"Plant response rating, Barnyardgrass",[4]; [30],20
same,Barnyardgrass plant response rating,[4]; [31],5
same,Barnyardgrass plant response rating,[4]; [32],5
same,"Plant response rating (0 to 100 scale), Surinam Grass",[5]; [25],0
same,Surinam Grass plant response rating,[5]; [26],20
same,"Plant response rating, Surinam Grass",[5]; [27],10
same,Surinam Grass plant response rating,[5]; [28],20
same,Velvetleaf plant response rating,[6]; [29],0
same,"Plant response rating, Velvetleaf",[6]; [30],0
same,Velvetleaf plant response rating,[6]; [31],30
same,Velvetleaf plant response rating,[6]; [32],10
same,"Plant response rating (0 to 100 scale), Rice","[7]; 125 g ai/ha, 0 is no effect, 100 is complete control",0
same,"Plant response rating, Rice","[7]; 500 g ai/ha, visual rating, 0 = no effect, 100 = complete control",0
same,"Plant response rating (0 to 100 scale), Foxtail, Giant",[8]; [25],0
same,"Foxtail, Giant plant response rating",[8]; [26],0
same,"Plant response rating, Foxtail, Giant",[8]; [27],20
same,"Foxtail, Giant plant response rating",[8]; [28],10
same,"Plant response rating (0 to 100 scale), Velvetleaf",[9]; [25],10
same,Velvetleaf plant response rating,[9]; [26],20
same,"Plant response rating, Velvetleaf",[9]; [27],20
same,Velvetleaf plant response rating,[9]; [28],20
same,"Crabgrass, Large plant response rating",[10]; [29],20
same,"Plant response rating, Crabgrass, Large",[10]; [30],20
same,"Crabgrass, Large plant response rating",[10]; [31],15
same,"Crabgrass, Large plant response rating",[10]; [32],5
same,Blackgrass plant response rating,[11]; [26],0
same,Blackgrass plant response rating,[11]; [28],0
same,"Oat, Wild plant response rating",[12]; [26],0
same,"Oat, Wild plant response rating",[12]; [28],10
same,Ducksalad plant response rating,[13],0
same,"Plant response rating (0 to 100 scale), Morningglory",[14]; [25],0
same,Morningglory plant response rating,[14]; [26],0
same,"Plant response rating, Morningglory",[14]; [27],0
same,Morningglory plant response rating,[14]; [28],20
same,"Plant response rating (0 to 100 scale), Barnyardgrass",[15]; [25],0
same,Barnyardgrass plant response rating,[15]; [26],10
same,"Plant response rating, Barnyardgrass",[15]; [27],20
same,Barnyardgrass plant response rating,[15]; [28],20
same,"Foxtail, Giant plant response rating",[16]; [29],0
same,"Plant response rating, Foxtail, Giant",[16]; [30],0
same,"Foxtail, Giant plant response rating",[16]; [31],10
same,"Foxtail, Giant plant response rating",[16]; [32],0
same,"Plant response rating (0 to 100 scale), Crabgrass, Large",[17]; [25],0
same,"Crabgrass, Large plant response rating",[17]; [26],0
same,"Plant response rating, Crabgrass, Large",[17]; [27],20
same,"Crabgrass, Large plant response rating",[17]; [28],10
same,"Plant response rating (0 to 100 scale), Pigweed",[18]; [25],20
same,Pigweed plant response rating,[18]; [26],10
same,"Plant response rating, Pigweed",[18]; [27],100
same,Pigweed plant response rating,[18]; [28],50
same,"Sedge, Umbrella plant response rating",[19],0
same,Rice plant response rating,[20],0
same,"Plant response rating (0 to 100 scale), Cocklebur",[21]; [25],0
same,Cocklebur plant response rating,[21]; [26],20
same,"Plant response rating, Cocklebur",[21]; [27],0
same,Cocklebur plant response rating,[21]; [28],20
same,Wheat plant response rating,[22]; [26],0
same,Wheat plant response rating,[22]; [28],0
same,Pigweed plant response rating,[23]; [29],10
same,"Plant response rating, Pigweed",[23]; [30],20
same,Pigweed plant response rating,[23]; [31],45
same,Pigweed plant response rating,[23]; [32],15
same,Barnyardgrass plant response rating,[24],0
